In PubChem BioAssay AID1897 (NMMLSC, 2009):
Activity calls are given as the source filed them. No rule for the calls is given here.

What follows are compounds tested against Mitogen-activated protein kinase kinase kinase 2 (Homo sapiens) + Dual specificity mitogen-activated protein kinase kinase 5 (Homo sapiens) (UniProt Q9Y2U5+Q13163) (assay: MEKK2 PB1-MEK5 interaction blockers – biochemical, bead multiplex flow cytometry, wildtype, dose response (AID 1897)). Details: MEK5-MEKK2 PB1 binding.
Chain of Mitogen-activated protein kinase kinase kinase 2 (Homo sapiens) + Dual specificity mitogen-activated protein kinase kinase 5 (Homo sapiens) (Q13163 whole entry, looked up): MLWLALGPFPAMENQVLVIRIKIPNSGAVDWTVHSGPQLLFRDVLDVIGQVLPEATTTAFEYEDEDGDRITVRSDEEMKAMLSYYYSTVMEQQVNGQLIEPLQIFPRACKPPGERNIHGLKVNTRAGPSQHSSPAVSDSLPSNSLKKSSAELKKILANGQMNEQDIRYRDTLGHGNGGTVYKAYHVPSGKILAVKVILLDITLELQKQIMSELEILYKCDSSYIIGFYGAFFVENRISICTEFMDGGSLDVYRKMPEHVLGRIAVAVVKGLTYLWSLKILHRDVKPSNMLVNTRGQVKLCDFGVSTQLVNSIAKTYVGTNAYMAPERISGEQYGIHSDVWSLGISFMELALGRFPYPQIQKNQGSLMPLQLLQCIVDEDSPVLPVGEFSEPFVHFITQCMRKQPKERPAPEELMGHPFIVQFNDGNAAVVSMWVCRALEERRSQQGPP
Chain of Mitogen-activated protein kinase kinase kinase 2 (Homo sapiens) + Dual specificity mitogen-activated protein kinase kinase 5 (Homo sapiens) (Q9Y2U5 whole entry, looked up): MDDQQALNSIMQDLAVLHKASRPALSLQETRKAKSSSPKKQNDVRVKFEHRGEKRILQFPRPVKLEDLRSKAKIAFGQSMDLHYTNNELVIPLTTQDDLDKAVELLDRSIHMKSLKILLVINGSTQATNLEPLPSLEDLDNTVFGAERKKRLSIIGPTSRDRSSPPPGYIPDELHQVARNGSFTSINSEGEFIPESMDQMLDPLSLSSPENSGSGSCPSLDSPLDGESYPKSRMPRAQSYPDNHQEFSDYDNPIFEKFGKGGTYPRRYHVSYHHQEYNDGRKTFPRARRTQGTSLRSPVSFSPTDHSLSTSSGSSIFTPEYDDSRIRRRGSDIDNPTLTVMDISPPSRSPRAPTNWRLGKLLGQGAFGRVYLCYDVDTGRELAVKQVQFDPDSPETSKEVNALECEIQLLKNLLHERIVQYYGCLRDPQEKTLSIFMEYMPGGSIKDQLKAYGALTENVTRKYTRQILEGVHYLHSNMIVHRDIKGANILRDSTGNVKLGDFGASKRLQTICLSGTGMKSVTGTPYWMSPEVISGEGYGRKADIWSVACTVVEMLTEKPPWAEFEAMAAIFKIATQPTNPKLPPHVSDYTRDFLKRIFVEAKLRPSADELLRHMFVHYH

Compound	EC50
C#CCOCCOCCOCCNc1nc(N2CCN(C(=O)[C@H](Cc3cc4ccccc4[nH]3)n3cc([C@@H](N)C(C)CC)nn3)CC2)nc(N2CCN(C(=O)[C@H](Cc3cc4ccccc4[nH]3)n3cc([C@@H](N)Cc4ccc(O)cc4)nn3)CC2)n1 (stereo partly specified)	1.01 µM
N=C(N)SCc1cn(-c2ccccc2)nc1-c1ccc(Br)cc1	3.13 µM
CCN(CC)CCOC(=O)c1ccc(N/C=C(/C#N)c2nc(-c3ccc4c(c3)OCO4)cs2)cc1	> 30 µM (inactive)
CS(=O)(=O)N1N=C(c2ccccc2)CC1c1ccc2c(c1)OCO2 (stereo unspecified)	> 30 µM (inactive)
Cc1cc(N=Nc2ccc(C)c(N=Nc3cc(C)c(N)cc3N)c2)c(N)cc1N	> 30 µM (inactive)
CCCCCc1cc(=O)oc2c(C(CCN3CCCC3)c3ccc(N(C)C)cc3)c(OC)cc(OC)c12 (stereo unspecified)	20.9 µM
CCN(CC)CCNC(=O)c1ccc(NC(=O)c2cn(-c3ccccc3)nc2-c2cccs2)cc1	5.94 µM
CN1C(=CC=C2C=C(I)C(=O)C(I)=C2)C(C)(C)c2ccccc21	9.16 µM
CCCCCCCCCCOC(=O)Cn1c(COc2cccc(C)c2)[n+](C)c2ccccc21	> 30 µM (inactive)

Same assay, conditions: MEK5-MEKK2 PB1 binding, measured here: Ki from binding competition

Compound	Ki [µM]
Cc1c2cc(O)c(=O)cc-2oc2cc(O)c(O)cc12	3.59
CN1C(=CC=C2C=C(I)C(=O)C(I)=C2)C(C)(C)c2ccccc21	8.2
